# Source: patent US4310521A, “Aspirin-isopropylantipyrine” (Toho Pharmaceutical Co., Ltd., priority 1979, dated 1982)
# Entries after “also recorded” stand apart in the source; their conditions may differ. Read-outs that look alike come from different tables or passages of the source.
# Legend:
# [1] = test system: mice (acetic acid writhings); test: Inhibition of acetic acid-induced writhing in mice (analgetic activity); assay type: in vivo; details: for No. of Writhings: 30 minutes before acetic acid i.p., control 32.2 ± 3.7; for Inhibition (%): writhing, based on the control group
# Method: The number of writhings that occurred when mice were administered an acetic acid solution intraperitoneally were counted, and the rate of inhibition based on the control group was calculated. The test compounds were administered to the mice 30 minutes before the acetic acid solution was administered.
# [2] = test system: mouse tail (pain threshold, heat); test: Prolongation time of pain threshold of mouse tail, D'Amour-Smith Method (analgetic activity); assay type: in vivo; details: mice, s.c., 200 mg/kg AIA vs 200 mg/kg aspirin, FIG. 1
# Method: Further, the prolongation time of pain threshold of mouse tail was determined in accordance with the D'Amour-Smith Method (J. Pharmacol. Exp. Ther., 72, 74 (1941)). After the subcutaneous administration of the test compounds to mice, the tails of mice were exposed to heat and the prolongation time of pain threshold was determined.
# [3] = test system: stomach, glandular portion; test: Gastric ulcerogenic activity, pylorus-ligated rats; assay type: in vivo; details: for Length of Stomach Lesion (cm): pylorus-ligated rats, oral, 100 mg/kg, 7 hours
# Method: Immediately after ligation of the pylorus of fasted rats, the test compounds were administered orally. The stomachs were removed 7 hours later, and the lengths of the lesions in the glandular portion were measured.
# [4] = test system: stomach, glandular portion; test: Gastric ulcerogenic activity, adjuvant-administered rats; assay type: in vivo; details: oral, 200 mg/kg per day, 21 days, control 0.05 ± 0.048, *P < 0.05
# Method: On the other hand, after administering an adjuvant, the rats were orally administered […] of the test compounds per day for 21 days. On the 21st day the stomachs were removed, and the lengths of the lesions in the glandular portion were measured.
# carrageenin edema = test: Carrageenin edema of hind paw (anti-inflammatory activity); assay type: in vivo; details: rats, s.c., 50 and 100 mg/kg, FIG. 2, in words
# Method: Rats were subcutaneously administered the test compounds, and 30 minutes later a carrageenin solution was administered subcutaneously to the foot pad of the rats. The volume of the hind paw was measured at prescribed intervals after the administration of the carrageenin, and the rate of increase in the volume of the paw was calculated and designated as the rate of swelling (%).
# adjuvant arthritis = test: Adjuvant arthritis (anti-inflammatory activity); assay type: in vivo; details: rats, 200 mg/kg per day, 21 days, FIG. 3, in words
# Method: On the other hand, an adjuvant was administered subcutaneously to only the foot pad of the left hind paw, and 200 mg/kg per day of the test compounds were administered daily for 21 days. The rate of increase in the volume of the both hind paws were measured daily and designated as the rate of swelling (%).
# rats (E. coli pyrogen) = test: Antipyretic activity, E. coli suspension as pyrogen; assay type: in vivo; details: s.c., 100 mg/kg, 2 hours after pyrogen
# Method: Rats received a sterilized E. coli suspension (1 platinum loop/2 ml saline, 0.5 ml/100 g, i.v.) as a pyrogen, and 2 hours later the test compounds were injected subcutaneously. The temperature was taken at hourly intervals before and after injection of the test compounds.
# [5] = test system: excised intestinal tract of rats; test: Inhibition of induced contraction of excised intestinal tract; details: 100 μg/ml
# Acute toxicity (LD 50) = assay type: in vivo; details: mouse, in vivo, male ddy mice
# Method: (§1) The acute toxicity of AIA was tested using male mice (ddy, body weight 18-25 g), and the dose at which 50% of the animal population were killed (LD 50) was determined.
# male mice = test: Acute toxicity (LD 50); assay type: in vivo; details: male ddy mice, in words
# Method: as §1
# Solubility = assay type: physicochemical
# [6] = Hygroscopicity and stability; assay type: physicochemical; details: in words, no test described; listed as formula (I)
# [7] = background statement on aspirin; cited from earlier work
# [8] = ip, intraperitoneal, read-out: LD 50 (g/kg), Intraperitoneal administration
# [9] = sc, subcutaneous, read-out: LD 50 (g/kg), Subcutaneous administration
# [10] = oral, read-out: LD 50 (g/kg), Oral administration
Structure (SMILES),No. of Writhings ([1]; 50 mg/kg),Inhibition (%) ([1]; 50 mg/kg),No. of Writhings ([1]; 100 mg/kg),Inhibition (%) ([1]; 100 mg/kg),Length of Stomach Lesion (cm) [3] [cm],Length of Stomach Lesion (cm) [4] [cm],LD50 (Acute toxicity (LD 50); [8]) [g/kg],LD50 (Acute toxicity (LD 50); [9]) [g/kg],LD50 (Acute toxicity (LD 50); [10]) [g/kg],also measured
"CC(=O)Oc1ccccc1C(=O)NCc1c(C(C)C)c(=O)n(-c2ccccc2)n1C [AIA, N-3'a-propylphenazonyl-2-acetoxybenzamide]",22.1 ± 3.3,31.4,18.3 ± 1.7,43.2,0.11 ± 0.09,0.04 ± 0.031,3.67 ± 0.07,> 5,> 5,"Analgetic activity (writhing) compared with aspirin ([1]; in words): analgetic activity comparable to that of aspirin; Analgetic activity (prolongation of pain threshold) compared with aspirin [2]: stronger analgetic activity than the group administered 200 mg/kg of aspirin; Injury to the stomach (Tables 2A and 2B) ([3]; rats, in words, Tables 2A and 2B): little or no injury is caused to the stomach; Inhibition of carrageenin edema formation (carrageenin edema): has the activity of inhibiting carrageenin edema formation; Inhibitory effect on adjuvant arthritis compared with aspirin (adjuvant arthritis): inhibitory effect on adjuvant arthritis comparable to that of aspirin; Antipyretic activity (rats (E. coli pyrogen)): demonstrated antipyretic activity; Inhibition of contraction induced by acetylcholine ([5]; acetylcholine): inhibit the contraction; Inhibition of contraction induced by barium chloride ([5]; barium chloride): inhibit the contraction; Inhibition of contraction induced by histamine ([5]; histamine): inhibit the contraction; Acute toxicity compared with aspirin (male mice): extremely low as compared with that of aspirin; Solubility in acetone (Solubility; acetone): dissolves readily; Solubility in chloroform (Solubility; chloroform): dissolves fairly well; Solubility in ethanol (Solubility; ethanol): dissolves readily; Solubility in methanol (Solubility; methanol): dissolves readily; Solubility in water (Solubility; water): practically insoluble; Hygroscopicity [6]: free of hygroscopicity; also recorded: not hygroscopic; Stability [6]: stable; also recorded: good stability"
"CC(=O)Oc1ccccc1C(=O)O [Aspirin, acetylsalicylic acid]",17.2 ± 4.0,46.6,15.3 ± 2.4,52.5,4.13 ± 1.24,3.29 ± 1.37,0.76 ± 0.09,1.02 ± 0.11,11.6 ± 0.07,Hygroscopicity [7]: hygroscopic
